The values that follow are results of earlier work, collected in patent US20040147490A1, “2-Amino-propanol derivatives” (priority 2001, published 2004).

The conditions of the series: comparison substance.

For `CCCCCCCCCCCCC/C=C/[C@@H](O)[C@@H](N)COP(=O)(O)O` [sphingosine-1 phosphate], the negative chronotropic effects result is “negative chronotropic effects”.
